Laboratory results from patent publication US20040072770A1, “Methods for specifically inhibiting histone deacetylase-7 and 8” (priority 2002, published 2004).
d = 2'-deoxy (DNA); m = 2'-O-methyl

What was measured:
[1] = tested on: mammalian HDAC; conditions: Yoshida et al., J. Biol. Chem. 265:17174-17179 (1990); cited from earlier work
[2] = tested on: murine erythroleukemia cells; conditions: Yoshida et al, Cancer Res. 47:3688-3691 (1987); cited from earlier work
[3] = tested on: A549 cells; assay: Growth inhibition by antisense oligos, A549; type: cell-based, human; conditions: 50 nM, 48 hour, vs cells treated with lipofectin
Protocol: (§1) For all ex vivo oligo treatment, human A549 human […] carcinoma cells were seeded in 10 cm tissue culture dishes one day prior to oligonucleotide treatment. The cell lines were obtained from the American Type Culture Collection (ATCC) (Manassas, Va.) and were grown under the recommended culture conditions. Before the addition of the oligonucleotides, cells were washed with PBS (phosphate buffered saline). Next, lipofectin transfection reagent (GIBCO BRL Mississauga, Ontario, Calif.), at a concentration of 6.25 μg/ ml, was added to serum free OPTIMEM medium (GIBCO BRL, Rockville, Md.), which was then added to the cells. The oligonucleotides were added directly to the cells (i.e., one oligonucleotide per plate of cells). Mismatched oligonucleotides were used as controls. The same concentration of oligonucleotide (e.g., 50 nM) was used per plate of cells for each oligonucleotide tested.
(§2) In order to determine the effect of HDAC ODNs on cell growth inhibition and cell death through apoptosis, A549, T24, DuI45, HCT116 cells (ATCC, Manassas, Va.), or HMEC cells (BioWhittaker, Walkersville, Md.) were treated with HDAC ODNs as previously described.
(§3) For the cell growth inhibition analysis, human cancer or normal cells were treated with 50 nM of paired AS or MM oligos directed against human HDAC-1, HDAC-7 or HDAC-8for up to 96 hours. Cell numbers were counted every day by trypan blue exclusion. Percentage of inhibition was calculated as (100 - AS cell numbers/control cell numbers)%.

[4] = tested on: Du145 cells; assay: Growth inhibition by antisense oligos, Du145; type: cell-based, human; conditions: 50 nM, 48 hour, vs cells treated with lipofectin
Protocol: as §1, §2, §3

[5] = tested on: HCT116 cells; assay: Growth inhibition by antisense oligos, HCT116; type: cell-based, human; conditions: 50 nM, 48 hour, vs cells treated with lipofectin
Protocol: as §1, with “tested. […]” for “tested.”
as §3

[6] = tested on: MDAmb231 cells; assay: Growth inhibition by antisense oligos, MDAmb231; type: cell-based, human; conditions: 50 nM, 48 hour, vs cells treated with lipofectin
Protocol: [The procedure below names another cell line; the source lists this cell line under the same test.] as §1, with “tested. […]” for “tested.”
as §3

[7] = tested on: A549 cells; assay: Apoptosis (Cell Death Detection ELISA), A549; type: cell-based, human; conditions: 50 nM, 48 hours, over mismatch control
Protocol: as §1, §2
(§4) For the apoptosis study, cells were analyzed using the Cell Death Detection ELISA^Plus kit (Roche Diagnostic GmBH, Mannheim, Germany) according to the manufacturer's directions. Typically, 10,000 cells were plated in 96-well tissue culture dishes for 2 hours before harvest and lysis. Each sample was analyzed in duplicate. ELISA reading was done using a MR700 plate reader (DYNEX Technology, Ashford, Middlesex, England) at 410 nm. The reference was set at 490 nm.
[…] Similarly, A549 cells were treated with 20 nM of HDAC1 AS in combination with 20 nM of each of AS inhibitors against human HDAC2 to HDAC8. After 48 hour treatment, A549 cells were harvested and analyzed for apoptosis by ELISA as described previously. Apoptosis of A549 cells by AS inhibition was compared to that of cells treated with 1 uM TSA for 16 hours. […] The control oligo UMM had no effect on induction of apoptosis.

[8] = tested on: T24 cells; assay: Apoptosis (Cell Death Detection ELISA), T24; type: cell-based, human; conditions: 50 nM, 48 hours, over mismatch control
Protocol: as §1, §2, §4

[9] = tested on: MDAmb231 cells; assay: Apoptosis (Cell Death Detection ELISA), MDAmb231; type: cell-based, human; conditions: 50 nM, 48 hours, over mismatch control
[10] = tested on: HCT116 cells; assay: Inhibition of agar colony formation, HCT116; type: cell-based, human; conditions: 50 nM oligos for 48 hours, vs cells treated with lipofectin
[11] = tested on: MDAmb231 cells; assay: Inhibition of agar colony formation, MDAmb231; type: cell-based, human; conditions: 50 nM oligos for 48 hours, vs cells treated with lipofectin
[12] = tested on: human HDAC-2 RNA; assay: HDAC-2 RNA expression screen, Northern blot; type: cell-based; conditions: screened as above (T24 cells, 100 nM, 24 hours)
Protocol: (§5) To identify antisense oligodeoxynucleotide (ODN) capable of inhibiting HDAC-1 expression in human cancer cells, eleven phosphorothioate ODNs containing sequences complementary to the 5′ or 3′ UTR of the human HDAC-1 gene (GenBank Accession No. U50079) were initially screened in T24 cells at 100 nM. Cells were harvested after 24 hours of treatment, and HDAC-1 RNA expression was analyzed by Northern blot analysis. […] HDAC-1 MM oligo was created as a control; compared to the antisense oligo, it has a 6-base mismatch.
Twenty-four phosphorothioate ODNs containing sequences complementary to the 5′ or 3′ UTR of the human HDAC-2 gene (GenBank Accession No. U31814) were screened as above. […] HDAC-2 MM was created as a control; compared to the antisense oligo, it contains a 7-base mismatch.

[13] = tested on: human HDAC-8 mRNA; assay: HDAC-8 mRNA expression in A549 cells, Northern blot; type: cell-based
Protocol: To identify antisense oligodeoxynucleotides (ODN) capable of inhibiting HDAC-8 expression in human cancer cells, fourteen phosphorothioate ODNs containing sequences complementary to the 5′ or 3′ UTR of the human […] (GenBank Accession No. AF230097) were initially screened in A549 cells at 100 nM. Cells were harvested after 24 hours of treatment, and HDAC-8 RNA expression was analyzed by Northern blot analysis. […] Total RNAs were harvested and were analyzed by Northern Blot. GAPDH expression was analyzed to indicate total RNA loading in each lane.
In order to determine the dose response of HDAC7 antisense inhibitors to reduce HDAC7 message at the mRNA level, Human A549 cells were treated with 25 or 50 nM of antisense (AS1 and AS2) oligos directed against human HDAC-7 or the corresponding mismatch of AS1 (MM1) oligo or an universal mismatch (UMM) for 24 hours. […] The time dependence of HDAC7 antisense inhibitors on blocking HDAC7 gene expression at the mRNA level was analyzed by treating A549 cells with 50 nM AS1 or MM1 oligos. […] Similarly, A549 cells were treated with 25 nM or 50 nM of AS1 or AS2 oligos directed against human HDAC-8 or its MM oligo for AS2 (MM2) for 24 hours. AS-2 oligo against human HDAC8 at 50 nM was also used to treat A549 cells for 24 or 48 hours.
as §1
Cells were harvested, and total RNAs were analyzed by Northern blot analysis. Briefly, total RNA was extracted using RNeasy miniprep columns (QIAGEN Canada, Mississauga, Ontario). Ten to twenty […] of total RNA was run on a formaldehyde-containing 1% agarose gel with 0.5 M sodium phosphate (pH 7.0) as the buffer system. RNAs were then transferred to nitrocellulose membranes and hybridized with the indicated radiolabeled DNA probes. Autoradiography was performed using conventional procedures.

[14] = tested on: human HDAC-6 RNA; assay: HDAC-6 RNA expression screen, Northern blot; type: cell-based; conditions: screened as above (T24 cells, 100 nM, 24 hours)
Protocol: as §5
Thirteen phosphorothloate ODNs containing sequences complementary to the 5′ or 3′ untranslated regions of the human HDAC-6 gene (GenBank Accession No. AJ011972) were screened as above. […] HDAC-6 MM oligo was created as a control; compared to the antisense oligo, it contains a 7-base mismatch.

Q: Which “inhibition of mammalian HDAC” value [1] does the source give for `CC(/C=C/C(=O)NO)=C\[C@@H](C)C(=O)c1ccc(N(C)C)cc1` [TSA, (R)-Trichostatin A] here?
A: potent inhibitor

Q: What about the induction of differentiation [2] of the same compound?
A: potent inducer of differentiation

Q: With “5′-GCUGCCTGCCGTGCCCACCC-3′ (sugars from the 5' end m4 d12 m4, all phosphorothioate, methylation of C not given here) [HD4 AS1, antisense oligo, Human HDAC4 5′-UTR]” as the compound, how does the “Growth Inhibition A549” value [3] read?
A: + (“+” means >35% inhibition of cell growth by antisense oligos (50 nM, 48 hour) compared to that of cells treated with lipofectin)

Q: What about the “Growth Inhibition Du145” value [4] of the same compound?
A: + (“+” means >35% inhibition of cell growth by antisense oligos (50 nM, 48 hour) compared to that of cells treated with lipofectin)

Q: And the “Growth Inhibition HCT 116” value [5]?
A: + (“+” means >35% inhibition of cell growth by antisense oligos (50 nM, 48 hour) compared to that of cells treated with lipofectin)

Q: And the “Growth Inhibition MDAmb 231” value [6]?
A: + (“+” means >35% inhibition of cell growth by antisense oligos (50 nM, 48 hour) compared to that of cells treated with lipofectin)

Q: What about the “Apoptosis A549” value [7] of the same compound?
A: + (“+” means the induction of apoptosis at least 2 fold over mismatch control (50 nM, 48 hours))

Q: And the “Apoptosis T24” value [8]?
A: + (“+” means the induction of apoptosis at least 2 fold over mismatch control (50 nM, 48 hours))

Q: And the “Apoptosis MDAmb 231” value [9]?
A: + (“+” means the induction of apoptosis at least 2 fold over mismatch control (50 nM, 48 hours))

Q: What about the “inhibition of agar colony formation HCT 116” value [10] of the same compound?
A: + (“+” means >35% inhibition of agar colony formation of cells treated with 50 nM oligos for 48 hours compared to that of cells treated with lipofectin)

Q: And the “inhibition of agar colony formation MDAmb 231” value [11]?
A: + (“+” means >35% inhibition of agar colony formation of cells treated with 50 nM oligos for 48 hours compared to that of cells treated with lipofectin)

Q: Which results are given for “5′-GCUGAGCTGTTCTGATUUGG-3′ (sugars from the 5' end m4 d12 m4, all phosphorothioate, methylation of C not given here) [HD2 AS, antisense oligo, Human HDAC2 3′-UTR]”?
A: Growth Inhibition Du145 [4]: + (“+” means >35% inhibition of cell growth by antisense oligos (50 nM, 48 hour) compared to that of cells treated with lipofectin); HDAC-2 RNA expression, screen [12]: antisense activity to human HDAC-2

Q: Which “Growth Inhibition A549” value [3] does the source give for “5′-AGCCAGCTGCCACTTGAUGC-3′ (sugars from the 5' end m4 d12 m4, all phosphorothioate, methylation of C not given here) [HD8 AS2, antisense oligo, Human HDAC8 3′-UTR]” here?
A: + (“+” means >35% inhibition of cell growth by antisense oligos (50 nM, 48 hour) compared to that of cells treated with lipofectin)

Q: What about the “Growth Inhibition Du145” value [4] of the same compound?
A: + (“+” means >35% inhibition of cell growth by antisense oligos (50 nM, 48 hour) compared to that of cells treated with lipofectin)

Q: What about the “Apoptosis A549” value [7] of the same compound?
A: + (“+” means the induction of apoptosis at least 2 fold over mismatch control (50 nM, 48 hours))

Q: What about the “Apoptosis T24” value [8] of the same compound?
A: + (“+” means the induction of apoptosis at least 2 fold over mismatch control (50 nM, 48 hours))

Q: And the “inhibition of agar colony formation HCT 116” value [10]?
A: + (“+” means >35% inhibition of agar colony formation of cells treated with 50 nM oligos for 48 hours compared to that of cells treated with lipofectin)

Q: And the “HDAC-8 mRNA expression, dose response (FIG. 5)” value ([13]; 25 nM or 50 nM, 24 hours)?
A: inhibited in a dose-dependent manner

Q: And the “HDAC-8 mRNA expression, time course (FIG. 6)” value ([13]; 50 nM, 24 or 48 hours)?
A: significantly block HDAC8 expression at the mRNA level by 24 hours

Q: What about the “HDAC-8 RNA expression, initial screen” value ([13]; 100 nM, 24 hours) of the same compound?
A: good antisense activities

Q: Which “HDAC-6 RNA expression, screen” value [14] does the source give for “5′-CAGGCTGGAATGAGCTACAG-3′ (sugars from the 5' end m4 d12 m4, all phosphorothioate, methylation of C not given here) [HD6 AS, antisense oligo, Human HDAC6 3′-UTR]” here?
A: antisense activity to human HDAC-6
